{
  "source": "patent US20230372337A1",
  "about": "“Combination Therapy Comprising an AXL Inhibitor” (BERGENBIO ASA, priority 2020, published 2023)",
  "key": {"EMT related genes": {"system": "EMT related genes", "test": "RT2 Profiler PCR Array Mouse Epithelial to Mesenchymal Transition (EMT) on 4T1 tumors (Example 2)", "assay_type": "in vivo, Balb/c mice", "conditions": "for Downregulated EMT genes (number): doxorubicin 1 mg/kg i.t., 72 hr timepoint; for EMT related genes significantly downregulated (number): doxorubicin 3 mg/kg i.t., 72 hours", "experimental": "(§1) RNA was extracted from 139 mice from the different groups snap frozen tumors using the RNEasy Microarray Tissue Mini kit from Qiagen following the manufacturer's instructions. As tumors contained Doxorubicin and powderizing them could expose personnel to harmful substances, the RNA was extracted in a closed system using the GentleMACS dissociator and M Tubes. Purity and concentration of RNA was measured using Nanodrop. cDNA was synthesized from RNA using the RT^2 First Strand kit (Qiagen) according to the manufacturer's instructions. cDNA was mixed with RT^2 SYBR Green Mastermix (Qiagen) and loaded into RT Profiler™ PCR Array Mouse Type I Interferon Response or RT^2 Profiler™ PCR Array Mouse Epithelial to Mesenchymal Transition (EMT), analyzing the expression of 84 genes listed in Tables 9 and 10. The plates were analyzed using Light Cycler 480 (Roche) and data were analyzed using the Qiagen Data Analysis Centre and Graph Pad (Prism).\nQuiagen RT^2 software was used to analyze all the samples from different groups. To be able to generate heatmaps and graph on fold change including error bars, the data have been analyzed manually with Graph Pad (Prism) when the Quiagen RT^2 software gave significant results between the different groups. For IFN type 1 response 1 mg/kg 48, 72 h and 3 mg/kg 48 h, were analyzed manually. For EMT, 1 mg/kg 48, 72 h, 3 mg/kg 72 h. When the data have been analyzed manually, the results are presented as histograms of mRNA fold changes. For the time points and doses analyzed by the software, the results are presented as tables.\nEMT related gene expression in tumors was assessed by the RT^2 Profiler™ PCR Array for the 1 and 3 mg/kg doses at 48 and 72 hr timepoints. The highest dose and 24 hr timepoint samples were excluded based on the results outlined above."}, "global gene expression": {"system": "global gene expression", "test": "RNA sequencing of 4T1 tumors 72 hours after doxorubicin i.t. (Example 2)", "assay_type": "in vivo, Balb/c mice", "experimental": "FASTQ files were generated and quality controlled by the Genomic Core Facility. The trimmed samples were aligned to the reference genome using STAR. Gene expression quantification was achieved using feature Counts. Following QC, 8 and 7 samples from in vitro and in vivo studies respectively were identified as outliers and were excluded from subsequent analysis. RUVseq was used to remove hidden batch effect and/or other unwanted variations.\nRead counts were analyzed for differential expression using the R package DESeq2. DESeq2 uses the raw read counts, applies an internal normalization method, and does estimation of library size, estimation of dispersion, and negative binomial generalized linear model fitting. The resulting differentially expressed gene lists (adjusted p-value cutoff=0.05) were then analyzed using Metascape to find the enriched terms.\nRNA sequence analysis (RNAseq) was performed on tumor samples from mice sacrificed 72 hours after doxorubicin i.t. treatment (corresponding to group E and F at the 72 hr timepoint in Example 1)."}, "43 mouse cytokines": {"system": "43 mouse cytokines", "test": "Plasma cytokines, ProcartaPlex Multiplex Immunoassay (Luminex) (Example 2)", "assay_type": "in vivo, Balb/c mice", "conditions": "1 mg/kg doxorubicin i.t., 72 h post injection, 43 measured", "protocol": "The manufacturer user guide was followed. The samples were analyzed by (MAGPIX) and the results were obtained as concentration in pg/ml of mouse plasma. At least 3 samples per group, 4 for many, were analyzed."}, "IFN related genes (ISG)": {"system": "IFN related genes (ISG)", "test": "qRTPCR of IFN related genes in Yumm1.7 tumors after sacrifice (Example 3)", "assay_type": "in vivo, C57Bl6 mice", "conditions": "35 IFN related genes tested", "experimental": "RNA was extracted from snap frozen tumors using the RNEasy Microarray Tissue Mini kit from Qiagen following the manufacturer's instructions. As tumors contained Doxorubicin and powderizing them could expose personnel to harmful substances, the RNA was extracted in a closed system using the GentleMACS dissociator and M Tubes. Purity and concentration of RNA was measured using Nanodrop. cDNA was synthesized from RNA using the RT^2 First Strand kit (Qiagen) according to the manufacturer's instructions. cDNA was mixed with SYBR Green Mastermix (Qiagen) and loaded into PCR plates with different probes against interferon related genes (listed in table 14). The plates were analyzed using Light Cycler 480 (Roche) and data were analyzed using Graph Pad (Prism).\nTumors from 4 animals treated either with Vehicle (group A), bemcentinib (Group B), Doxorubicin (group F) or bemcentinib+Doxorubicin (group H) were analyzed. Data are presented as fold changes compared to Vehicle treated mice. 35 IFN related genes (Table 14) were tested by RT PCR. Fold change was obtained compared to the control group (A). […]\nA molecular mechanism focused study will be performed later; here samples were collected after sacrifice, meaning many days after treatment for some of the groups. The expression of 35 ISG as well, immune checkpoint related genes EMT related genes, Axl and Gas6 were analyzed by qRTPCR (Table 14)."}, "4T1 cells [1]": {"system": "4T1 cells", "test": "RNA sequencing of 4T1 cells in vitro (Example 4)", "assay_type": "cell-based, mouse", "conditions": "without supplemental Gas6"}, "[2]": {"conditions": "mouse, in vivo", "description": "Animals were weighed prior to tumor cell injection, prior to daily dosing and prior to euthanasia."}, "[3]": {"system": "4T1 mammary carcinoma cells", "test": "Tumor growth, 4T1 model (Example 2)", "design": "species or system Balb/c mice", "conditions": "short in vivo study, single i.t. injection day 15", "protocol": "Tumor growth was measured with a digital handheld caliper twice weekly from emergence of tumor and until the day of euthanasia"}, "4T1 cells [4]": {"system": "4T1 cells", "test": "qRTPCR of IFN related genes in 4T1 cells in vitro (Example 4)", "assay_type": "cell-based, mouse", "conditions": "doxorubicin, 42 ISG measured"}, "LL2 cells [5]": {"system": "LL2 cells", "test": "Resazurin viability assay of LL2 cells (Example 4)", "assay_type": "cell-based, mouse", "experimental": "(§2) 4T1 cells (ATCC, CRL-2539) were cultured in RPMI-1640 (Sigma, Cat. #R8758) supplemented with 10% fetal bovine serum (FBS), L-glutamine (4 mM), streptomycin (5 μg/ml) and penicillin (5 U/ml). […] Lewis lung carcinoma cells LL/2 (LLC1) (ATCC, CRL-1642™) were cultured in Dulbecco's Modified Eagle's Medium ATCC® 30-2002™ (4 mM L-glutamine, 4500 mg/L glucose, 1 mM sodium pyruvate, and 1500 mg/L sodium bicarbonate).\n(§3) The IC50 of the different drugs were calculated by resazurin viability assay. […] The cells were treated for 48 hours."}, "LL2 cells [6]": {"system": "LL2 cells", "test": "qRTPCR of IFN related genes in Lewis lung carcinoma (LL2) cells in vitro (Example 4)", "assay_type": "cell-based, mouse", "conditions": "Doxorubicin 50 nM, 48 hours", "experimental": "as §2\nas §1, with “from” for “from 139 mice from the different groups”, “Nanodrop. RT^2 Profiler™ PCR Array.” for “Nanodrop.”, “into RT^2” for “into RT”, “of the” for “of 84”, “in Table 17.” for “in Tables 9 and 10.”\nChemotherapeutic agents commonly used to treat lung cancer patients were evaluated for effects on the IFN response. Cisplatin, navelbine and docetaxel were tested in vitro in combination with bemcentinib.\nas §3"}},
  "note": "Read-outs that look alike come from different tables or passages of the source.",
  "data": [
    {"smiles": "Nc1nc(Nc2ccc3c(c2)CC[C@@H](N2CCCC2)CC3)nn1-c1cc2c(nn1)-c1ccccc1CCC2", "note": "[Bemcentinib, bemcentinib]", "values": [
      {"measurement": "Downregulated EMT genes (number)", "setting": "EMT related genes", "result": "one"},
      {"measurement": "EMT related genes significantly downregulated (number)", "setting": "EMT related genes", "result": "none"},
      {"measurement": "GO terms significantly downregulated compared to control (number)", "setting": "global gene expression", "result": 20},
      {"measurement": "GO terms significantly upregulated compared to control (number)", "setting": "global gene expression", "result": 2},
      {"measurement": "Interferon response (gene ontology) compared to control", "setting": "global gene expression", "result": "downregulated"},
      {"measurement": "Cytokines with a significant decrease of concentration (number)", "setting": "43 mouse cytokines", "result": 4},
      {"measurement": "ISG significantly upregulated compared to control (number)", "setting": "IFN related genes (ISG)", "result": 4},
      {"measurement": "IFN related gene expression by RNA sequencing", "setting": "4T1 cells [1]", "result": "limited IFN type I response"}
    ]},
    {"smiles": "COc1cccc2c1C(=O)c1c(O)c3c(c(O)c1C2=O)C[C@@](O)(C(=O)CO)C[C@@H]3O[C@H]1C[C@H](N)[C@H](O)[C@H](C)O1", "note": "[Doxorubicin, doxorubicin]", "values": [
      {"measurement": "Downregulated EMT genes (number)", "setting": "EMT related genes", "result": "one"},
      {"measurement": "EMT related genes significantly downregulated (number)", "setting": "EMT related genes", "result": "none"},
      {"measurement": "GO terms significantly upregulated compared to control (number)", "setting": "global gene expression", "result": 1},
      {"measurement": "Interferon and immune response (gene ontology) compared to bern only group", "setting": "global gene expression", "result": "upregulated"},
      {"measurement": "Interferon response (gene ontology) compared to control", "setting": "global gene expression", "result": "No Interferon response"},
      {"measurement": "Effect on the body weight of mice", "setting": "[2]", "result": "limited effect"},
      {"measurement": "Tumor growth", "setting": "[3]", "result": "no effect"},
      {"measurement": "ISG significantly upregulated compared to control (number)", "setting": "IFN related genes (ISG)", "result": "No gene"},
      {"measurement": "ISG with significant mRNA fold change upregulation compared to control (number)", "setting": "4T1 cells [4]", "result": 9},
      {"measurement": "IC50", "setting": "LL2 cells [5]; Mus musculus, LL/2, read-out: IC50 without bem", "result": 0.178, "unit": "µM"},
      {"measurement": "IC50", "setting": "LL2 cells [5]; in the presence of bemcentinib, read-out: IC50 with bem", "result": 0.0703, "unit": "µM"},
      {"measurement": "ISG significantly upregulated compared to control (number)", "setting": "LL2 cells [6]", "result": "limited IFN response"}
    ]}
  ]
}
